Assay results reported in patent publication US6534486B1, “2-(purin-9-yl)-Tetrahydrofuran-3,4-diol derivatives” (SmithKline Beecham Corporation, priority 1998, dated 2003).

Key:
Format in all cases: cell-based
Conditions in all cases: ratio of EC50 to that of NECA, CHO cells transfected with human receptor, SPAP readout
[1] = target: human adenosine 2a receptor (Homo sapiens, UniProt P29274); assay: Agonist activity at adenosine 2a receptor, CHO cells with CRE-SPAP reporter (basal cAMP)
Experimental: (§1) (1) Agonist activity against adenosine 2a, adenosine 1 and adenosine 3 receptor subtypes.
(§2) Agonist selectivity of compounds against other human adenosine receptors was determined using Chinese hamster ovary (CHO) cells transfected with the gene for the relevant human adenosine receptor following a method based on that of Castanon and Spevak, 1994. The CHO cells were also transfected with cyclic AMP response elements promoting the gene for secreted placental alkaline phosphatase (SPAP) (Wood, 1995). The effect of test compounds was determined by their effects on basal levels of cAMP (A2a) or on forskolin-enhanced cAMP (A1 and A3) as reflected by changes in levels of SPAP. EC50 values for compounds were then determined as a ratio to that of the non-selective agonist N-ethyl carboxamide adenosine (NECA).

[2] = target: T1, human adenosine 3 receptor (Homo sapiens, UniProt P0DMS8); assay: Agonist activity at adenosine 3 receptor, CHO cells with CRE-SPAP reporter (forskolin-enhanced cAMP)
T1 sequence (P0DMS8 1-318): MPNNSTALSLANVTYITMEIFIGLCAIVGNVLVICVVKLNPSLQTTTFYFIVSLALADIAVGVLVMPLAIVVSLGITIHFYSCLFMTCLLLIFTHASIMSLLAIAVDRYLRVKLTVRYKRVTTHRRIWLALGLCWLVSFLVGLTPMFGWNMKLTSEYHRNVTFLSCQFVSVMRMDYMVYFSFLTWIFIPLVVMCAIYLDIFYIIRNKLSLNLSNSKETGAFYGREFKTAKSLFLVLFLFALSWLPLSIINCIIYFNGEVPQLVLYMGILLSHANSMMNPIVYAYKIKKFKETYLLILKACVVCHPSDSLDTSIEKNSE
Experimental: as §1, §2

[3] = target: T2, human adenosine 1 receptor (Homo sapiens, UniProt P30542); assay: Agonist activity at adenosine 1 receptor, CHO cells with CRE-SPAP reporter (forskolin-enhanced cAMP)
T2 sequence (P30542 1-326): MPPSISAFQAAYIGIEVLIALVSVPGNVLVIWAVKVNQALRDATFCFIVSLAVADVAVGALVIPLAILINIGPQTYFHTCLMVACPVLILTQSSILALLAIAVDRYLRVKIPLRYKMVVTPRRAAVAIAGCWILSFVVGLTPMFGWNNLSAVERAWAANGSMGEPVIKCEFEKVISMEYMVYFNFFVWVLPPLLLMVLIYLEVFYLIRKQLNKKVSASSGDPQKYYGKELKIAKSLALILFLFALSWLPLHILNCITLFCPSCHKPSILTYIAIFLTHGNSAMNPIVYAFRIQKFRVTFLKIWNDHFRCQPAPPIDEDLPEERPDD
Experimental: as §1, §2

human adenosine 2a receptor, sequence (P29274 whole entry): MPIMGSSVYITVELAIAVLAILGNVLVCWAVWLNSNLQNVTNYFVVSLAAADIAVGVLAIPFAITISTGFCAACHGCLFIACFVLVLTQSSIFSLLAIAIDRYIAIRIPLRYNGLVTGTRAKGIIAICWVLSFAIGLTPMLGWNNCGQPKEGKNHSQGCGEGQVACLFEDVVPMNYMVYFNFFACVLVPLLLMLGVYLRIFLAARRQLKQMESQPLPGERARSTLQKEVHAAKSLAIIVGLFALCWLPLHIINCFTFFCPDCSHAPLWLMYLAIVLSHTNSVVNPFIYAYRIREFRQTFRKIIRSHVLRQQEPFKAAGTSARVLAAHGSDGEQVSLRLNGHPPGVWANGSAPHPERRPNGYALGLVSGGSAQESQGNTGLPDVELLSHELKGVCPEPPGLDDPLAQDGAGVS

A2a, EC50 values as a ratio of that of NECA [1] | A3, EC50 values as a ratio of that of NECA [2] | A1, EC50 values as a ratio of that of NECA [3] | Structure (SMILES)
23.7 | >274 | >=3397 | OC1CCCC1Nc1nc(NCC(c2ccccc2)c2ccccc2)c2ncn(C3OC(Cn4cncn4)C(O)C3O)c2n1 [Example 6, (2R,3R,4S,5R)-2-[6-(2,2-Diphenyl-ethylamino)-2-(2R-hydroxy-cyclopent-(R)-ylamino)-purin-9-yl]-5-[1,2,4]triazol-1-ylmethyl-tetrahydro-furan-3,4-diol format]
14.4 | >152 | >8479 | OC1C(Cn2cncn2)OC(n2cnc3c(NCC(c4ccccc4)c4ccccc4)nc(NC4CCNC4)nc32)C1O [Example 2, (2R,3R,4S,5R)-2-[6-(2,2-Diphenyl-ethylamino)-2-(pyrrolidin-3R-ylamino)-purin-9-yl]-5-[1,2,4]triazol-1-ylmethyl-tetrahydro-furan-3,4-diol diformate]
1.31 | >147 | 3038.8 | Cn1cnc(CCNc2nc(NCC(c3ccccc3)c3ccccc3)c3ncn(C4OC(Cn5nccn5)C(O)C4O)c3n2)c1 [Example 3, (2R,3R,4S,5R)-2-{6-(2,2-Diphenyl-ethylamino)-2-[2-(1-methyl-1-H-imidazol-4-yl)-ethylamino]-purin-9-yl}-5-[1,2,3]triazol-2-ylmethyl-tetrahydro-furan-3,4-diol diformate]
13.46 | >270 | 8479 | Cn1cnc(CCNc2nc(NCC(c3ccccc3)c3ccccc3)c3ncn([C@@H]4O[C@H](CN5C(=O)CNC5=O)[C@@H](O)[C@H]4O)c3n2)c1.O=CO.O=CO [Example 5, 3-(5R-{6-(2,2-Diphenyl-ethylamino)-2-[2-(1-methyl-1-H-imidazol-4-yl)-ethylamino]-purin-9-yl}3S,4R-dihydroxy-tetrahydro-furan-2R-ylmethyl)-imidazolidine-2,4-dione diformate]

Structure (SMILES) | A2a, EC50 values as a ratio of that of NECA [1] | A3, EC50 values as a ratio of that of NECA [2] | A1, EC50 values as a ratio of that of NECA [3]
O=CO.O[C@@H]1[C@H](O)[C@@H](Cn2nccn2)O[C@H]1n1cnc2c(NCC(c3ccccc3)c3ccccc3)nc(NCCN3CCOCC3)nc21 [Example 4, (2R,3R,4S,5R)-2-[6-(2,2-Diphenyl-ethylamino)-2-(2-morpholin-4-yl-ethylamino)-purin-9-yl]-5-[1,2,3]triazol-2-ylmethyl-tetrahydro-furan-3,4-diol formate] | 16.9 | >174 | 1014
N[C@H]1CC[C@H](Nc2nc(NCC(c3ccccc3)c3ccccc3)c3ncn([C@@H]4O[C@H](Cn5nccn5)[C@@H](O)[C@H]4O)c3n2)CC1.O=CO [Example 1, (2R,3R,4S, 5R)-2-[2-(trans-4-Amino-cyclohexylamino)6-(2,2-diphenyl-ethylamino)-purin-9-yl]-5-[1,2,3]triazol-2-ylmethyl-tetrahydro-furan-3,4-diol formate] | 17.1 | >656 | >=3969
